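Five compound concentrations were applied to cells in 96-well plates for 48 hours; endpoints were derived by simple linear interpolation of the resulting dose-response curve. Abbreviation: GI50, concentration required for 50% inhibition of growth.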 Calls of active or inactive are those of the source. Rule as the data show it: active = GI50 up to about 1.1 µM and inactive = higher.
What was measured:
Assay in all cases: NCI-60 cell line screen, 48 h
NCI-H460 = system: NCI-H460
786-0 = system: 786-0
A498 = system: A498
BT-549 = system: BT-549
CCRF-CEM = system: CCRF-CEM
SK-MEL-2 = system: SK-MEL-2
SW-620 = system: SW-620
T47D = system: T47D
SN12C = system: SN12C
PC-3 = system: PC-3
NCI/ADR-RES = system: NCI/ADR-RES
HOP-62 = system: HOP-62
HT-29 = system: HT-29
HOP-92 = system: HOP-92
MCF7 = system: MCF7
SK-MEL-5 = system: SK-MEL-5
Hs-578T = system: Hs-578T
EKVX = system: EKVX
SK-MEL-28 = system: SK-MEL-28

SMILES	GI50 (NCI-H460)	GI50 (786-0)	GI50 (A498)	GI50 (BT-549)	GI50 (CCRF-CEM)	GI50 (SK-MEL-2)	GI50 (SW-620)	GI50 (T47D)	GI50 (SN12C)	GI50 (PC-3)	GI50 (NCI/ADR-RES)	GI50 (HOP-62)	GI50 (HT-29)	GI50 (HOP-92)	GI50 (MCF7)	GI50 (SK-MEL-5)	GI50 (Hs-578T)	GI50 (EKVX)	GI50 (SK-MEL-28)
O=c1cc(/N=N\c2ccc(Cl)cc2)[nH]c(=O)[nH]1	5.52 µM (inactive)	1.66 µM (inactive)	> 10 µM (inactive)	3.88 µM (inactive)	1.44 µM (inactive)	13.3 µM (inactive)	2.33 µM (inactive)	3.18 µM (inactive)	3.98 µM (inactive)	7.05 µM (inactive)	7.4 µM (inactive)	7.74 µM (inactive)	2.35 µM (inactive)	2.07 µM (inactive)	3.97 µM (inactive)	10.6 µM (inactive)	5.68 µM (inactive)	4.09 µM (inactive)	4.69 µM (inactive)
COc1ccc(C(=O)CC(c2ccccc2)[C@H]2C(c3ccc(OC)cc3)=Nc3c(nc(SC)n(C)c3=O)NC2c2ccccc2)cc1 (some centres undefined)	> 100 µM (inactive)	> 100 µM (inactive)	> 100 µM (inactive)	> 100 µM (inactive)	> 100 µM (inactive)	> 100 µM (inactive)	> 100 µM (inactive)	> 100 µM (inactive)	> 100 µM (inactive)	> 100 µM (inactive)	> 100 µM (inactive)	> 100 µM (inactive)	> 100 µM (inactive)	> 100 µM (inactive)	> 100 µM (inactive)	41.3 µM (inactive)	> 100 µM (inactive)	> 100 µM (inactive)	> 100 µM (inactive)
COc1ccc(C2C3=C(COC3=O)OC(C)(C)Oc3cc4c(cc32)OCO4)cc1 (centres undefined)	26.7 µM (inactive)	39.4 µM (inactive)	22.8 µM (inactive)	16.9 µM (inactive)	22.4 µM (inactive)	37.8 µM (inactive)	21.8 µM (inactive)	26.3 µM (inactive)	37 µM (inactive)	15.1 µM (inactive)	18.5 µM (inactive)	23.6 µM (inactive)	24.4 µM (inactive)	11.8 µM (inactive)	> 64.4 µM (inactive)	20.4 µM (inactive)	27.4 µM (inactive)	35.5 µM (inactive)	43.1 µM (inactive)
CCc1n[nH]c(=O)n1N=C(c1ccccc1)c1ccccc1	> 100 µM (inactive)	> 100 µM (inactive)	> 100 µM (inactive)	> 100 µM (inactive)	> 100 µM (inactive)	> 100 µM (inactive)	> 100 µM (inactive)	> 100 µM (inactive)	> 100 µM (inactive)	> 100 µM (inactive)	> 100 µM (inactive)	> 100 µM (inactive)	> 100 µM (inactive)	> 100 µM (inactive)	> 100 µM (inactive)	> 100 µM (inactive)	> 100 µM (inactive)	32 µM (inactive)	> 100 µM (inactive)
Nc1c2cc3ccc2nc2ccc(cc12)OCCOCCOCCOCCOCCOCCO3	> 10 µM (inactive)	> 10 µM (inactive)	> 10 µM (inactive)	> 10 µM (inactive)	> 10 µM (inactive)	> 10 µM (inactive)	> 10 µM (inactive)	> 10 µM (inactive)	> 10 µM (inactive)	> 10 µM (inactive)	> 10 µM (inactive)	> 10 µM (inactive)	> 10 µM (inactive)	> 10 µM (inactive)	> 10 µM (inactive)	> 10 µM (inactive)	> 10 µM (inactive)	> 10 µM (inactive)	> 10 µM (inactive)
Cc1[nH]n(-c2nc(O)c(-c3ccccc3)c(=O)[nH]2)c(=O)c1CCO	> 100 µM (inactive)	> 100 µM (inactive)	> 100 µM (inactive)	> 100 µM (inactive)	> 100 µM (inactive)	> 100 µM (inactive)	> 100 µM (inactive)	> 100 µM (inactive)	> 100 µM (inactive)	> 100 µM (inactive)	> 100 µM (inactive)	–	> 100 µM (inactive)	> 100 µM (inactive)	> 100 µM (inactive)	> 100 µM (inactive)	> 100 µM (inactive)	> 100 µM (inactive)	> 100 µM (inactive)
CCCCCCCCCCCCCCCCCCOc1ccc(/C=C/C2=[N+](CCCl)CCO2)cc1	> 100 µM (inactive)	> 100 µM (inactive)	> 100 µM (inactive)	> 100 µM (inactive)	> 100 µM (inactive)	> 100 µM (inactive)	> 100 µM (inactive)	> 100 µM (inactive)	> 100 µM (inactive)	> 100 µM (inactive)	> 100 µM (inactive)	> 100 µM (inactive)	> 100 µM (inactive)	> 100 µM (inactive)	> 100 µM (inactive)	> 100 µM (inactive)	> 100 µM (inactive)	> 100 µM (inactive)	> 100 µM (inactive)
COc1cc2c(cc1O)CCN[C@@]21CS[C@H]2c3c(OC(C)=O)c(C)c4c(c3C(COC1=O)N1C2C2NC(Cc3cc(C)c(OC)c(O)c32)[C@@H]1O)OCO4 (some centres undefined)	< 0.01 µM (active)	< 0.01 µM (active)	< 0.01 µM (active)	< 0.01 µM (active)	< 0.01 µM (active)	< 0.01 µM (active)	< 0.01 µM (active)	< 0.01 µM (active)	–	< 0.01 µM (active)	< 0.01 µM (active)	< 0.01 µM (active)	< 0.01 µM (active)	< 0.01 µM (active)	< 0.01 µM (active)	< 0.01 µM (active)	< 0.01 µM (active)	< 0.01 µM (active)	< 0.01 µM (active)
Cc1c2cccc-2ccc2c1[nH]c1ccccc12	1.85 µM (inactive)	2.81 µM (inactive)	13.6 µM (inactive)	3.24 µM (inactive)	1.27 µM (inactive)	1.8 µM (inactive)	2.36 µM (inactive)	2.54 µM (inactive)	2.34 µM (inactive)	1.76 µM (inactive)	3.34 µM (inactive)	3.49 µM (inactive)	3.78 µM (inactive)	2.83 µM (inactive)	3.06 µM (inactive)	1.79 µM (inactive)	2.34 µM (inactive)	1.45 µM (inactive)	1.75 µM (inactive)
CC(O)CCNC(=O)Nc1c(C(F)(F)F)cc(-c2ccccc2)[nH]c1=O (centres undefined)	> 100 µM (inactive)	> 100 µM (inactive)	> 100 µM (inactive)	> 100 µM (inactive)	> 100 µM (inactive)	> 100 µM (inactive)	> 100 µM (inactive)	> 100 µM (inactive)	> 100 µM (inactive)	> 100 µM (inactive)	> 100 µM (inactive)	> 100 µM (inactive)	> 100 µM (inactive)	> 100 µM (inactive)	> 100 µM (inactive)	> 100 µM (inactive)	> 100 µM (inactive)	> 100 µM (inactive)	> 100 µM (inactive)
C/C(=N/NC(=S)N1CCCCC1)c1ccccc1O	22.6 µM (inactive)	> 31.6 µM (inactive)	> 100 µM (inactive)	> 100 µM (inactive)	21.7 µM (inactive)	> 31.6 µM (inactive)	> 31.6 µM (inactive)	8.26 µM (inactive)	> 31.6 µM (inactive)	28.8 µM (inactive)	28.2 µM (inactive)	> 100 µM (inactive)	23.1 µM (inactive)	> 31.6 µM (inactive)	14.3 µM (inactive)	60.8 µM (inactive)	20.1 µM (inactive)	29.9 µM (inactive)	> 31.6 µM (inactive)
COc1ccc2nc3cc([N+](=O)[O-])ccc3c(NNc3ccc(Cl)cc3)c2c1	2.88 µM (inactive)	17.9 µM (inactive)	0.073 µM (active)	29.9 µM (inactive)	22 µM (inactive)	18.7 µM (inactive)	12.1 µM (inactive)	32.5 µM (inactive)	33.1 µM (inactive)	24.8 µM (inactive)	32.6 µM (inactive)	21.8 µM (inactive)	15.2 µM (inactive)	20.9 µM (inactive)	11.6 µM (inactive)	14.7 µM (inactive)	29.9 µM (inactive)	26.2 µM (inactive)	70 µM (inactive)
COc1nncc2[nH]c(-c3ccccc3)cc12	64.6 µM (inactive)	70 µM (inactive)	22.3 µM (inactive)	40.5 µM (inactive)	44.9 µM (inactive)	33.9 µM (inactive)	> 100 µM (inactive)	40.9 µM (inactive)	40.9 µM (inactive)	44.7 µM (inactive)	76.2 µM (inactive)	> 100 µM (inactive)	> 100 µM (inactive)	> 100 µM (inactive)	49.7 µM (inactive)	67.8 µM (inactive)	44 µM (inactive)	29.4 µM (inactive)	–
COc1cc(C2c3c(ccc4ccccc34)C(=O)C3CCC(=O)N32)cc(OC)c1OC (centres undefined)	> 50 µM (inactive)	> 50 µM (inactive)	> 50 µM (inactive)	> 50 µM (inactive)	> 50 µM (inactive)	> 50 µM (inactive)	> 50 µM (inactive)	> 50 µM (inactive)	> 50 µM (inactive)	> 50 µM (inactive)	> 50 µM (inactive)	> 50 µM (inactive)	> 50 µM (inactive)	> 50 µM (inactive)	> 50 µM (inactive)	–	> 50 µM (inactive)	> 50 µM (inactive)	> 50 µM (inactive)
CCOc1cc2c(cc1O)/C(=N/NS(=O)(=O)c1ccc(C)cc1)C[C@@H]1[C@@H]2CC[C@]2(C)[C@@H](O)CC[C@@H]12	4.65 µM (inactive)	9.73 µM (inactive)	9.31 µM (inactive)	3.7 µM (inactive)	3.79 µM (inactive)	3.94 µM (inactive)	3.52 µM (inactive)	6.87 µM (inactive)	–	7.53 µM (inactive)	3.5 µM (inactive)	–	2.89 µM (inactive)	8.65 µM (inactive)	4.02 µM (inactive)	2.47 µM (inactive)	7.57 µM (inactive)	13 µM (inactive)	> 100 µM (inactive)
